Measurements published in patent US20250136606A1, “MODULATORS OF TRPML, THEIR COMPOSITIONS AND METHODS OF USE” (Caraway Therapeutics, Inc., priority 2021, published 2025).

How the values were obtained:
Assay type in all cases: cell-based
Conditions in all cases: fluorescent calcium assay
TRPML3 = molecular target: T1, TRPML3 (Homo sapiens, UniProt Q8TDD5); test: Fluorescent TRPML3 assay (performed as for TRPML1, substituting the TRPML3 subtype)
T1 construct: expressed in transfected cells
T1 sequence (Q8TDD5 1-553): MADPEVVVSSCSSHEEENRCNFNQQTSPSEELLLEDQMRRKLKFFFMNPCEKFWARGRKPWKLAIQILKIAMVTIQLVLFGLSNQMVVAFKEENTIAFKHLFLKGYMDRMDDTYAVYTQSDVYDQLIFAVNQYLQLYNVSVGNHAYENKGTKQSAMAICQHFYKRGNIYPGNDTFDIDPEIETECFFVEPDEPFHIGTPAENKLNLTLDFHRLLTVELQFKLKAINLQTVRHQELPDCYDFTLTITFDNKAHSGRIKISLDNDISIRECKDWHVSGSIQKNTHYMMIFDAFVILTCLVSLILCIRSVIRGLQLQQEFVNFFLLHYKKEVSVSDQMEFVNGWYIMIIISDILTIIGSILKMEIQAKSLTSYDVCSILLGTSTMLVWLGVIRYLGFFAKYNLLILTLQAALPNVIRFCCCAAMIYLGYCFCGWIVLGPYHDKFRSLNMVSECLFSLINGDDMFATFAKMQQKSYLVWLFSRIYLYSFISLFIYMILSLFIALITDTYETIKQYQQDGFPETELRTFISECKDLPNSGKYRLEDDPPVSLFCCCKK
How it was run: (§1)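 Compound series (final 6 nM-20 μM, half-log, triplicate) were added to Fluo4-AM-loaded HEK-293 Trex cells in 10 mM calcium Ringer's, expressing the human TRPML subtype after doxycycline 0.5 ug/mL induction. Percent activity versus positive/negative controls from 480/540 nm fluorescence; EC50 by non-linear regression.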

TRPML1 = TRPML1 (Homo sapiens, UniProt Q9GZU1); test: Fluorescent TRPML1 assay (Fluo4-AM calcium fluorescence in doxycycline-induced HEK-293 Trex cells)
Chain of TRPML1 (Q9GZU1 whole entry L15A/L16A/L577A/L578A, form open): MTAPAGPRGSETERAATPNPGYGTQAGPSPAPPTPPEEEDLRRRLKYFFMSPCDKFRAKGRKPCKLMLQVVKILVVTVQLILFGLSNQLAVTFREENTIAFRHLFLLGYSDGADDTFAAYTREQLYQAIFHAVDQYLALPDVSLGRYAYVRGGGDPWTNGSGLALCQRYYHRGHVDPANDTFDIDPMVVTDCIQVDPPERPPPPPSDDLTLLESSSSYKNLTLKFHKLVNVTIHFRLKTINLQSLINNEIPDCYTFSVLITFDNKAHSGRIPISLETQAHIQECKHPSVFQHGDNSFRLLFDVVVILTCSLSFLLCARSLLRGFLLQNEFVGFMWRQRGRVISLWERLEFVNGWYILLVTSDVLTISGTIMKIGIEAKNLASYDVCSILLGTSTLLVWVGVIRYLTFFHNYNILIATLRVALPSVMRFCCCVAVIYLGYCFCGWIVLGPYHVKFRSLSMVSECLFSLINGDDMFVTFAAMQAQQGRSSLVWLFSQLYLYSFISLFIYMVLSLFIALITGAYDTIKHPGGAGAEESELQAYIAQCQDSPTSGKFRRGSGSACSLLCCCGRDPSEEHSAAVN
How it was run: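 EC50 values come from non-linear regression of percent activity, normalized to on-plate positive and negative controls, with fluorescence read at 480 nm excitation and 540 nm emission. Fluo4-AM-loaded (1 µM) doxycycline-induced HEK-293 Trex cells expressing mutated human TRPML1 were exposed in 10 mM calcium Ringer's to 6 nM–20 µM compound, in triplicate.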

TRPML2 = molecular target: T2, TRPML2 (Homo sapiens, UniProt Q8IZK6); test: Fluorescent TRPML2 assay (performed as for TRPML1, substituting the TRPML2 subtype)
T2 construct: expressed in transfected cells
T2 sequence (Q8IZK6 1-566): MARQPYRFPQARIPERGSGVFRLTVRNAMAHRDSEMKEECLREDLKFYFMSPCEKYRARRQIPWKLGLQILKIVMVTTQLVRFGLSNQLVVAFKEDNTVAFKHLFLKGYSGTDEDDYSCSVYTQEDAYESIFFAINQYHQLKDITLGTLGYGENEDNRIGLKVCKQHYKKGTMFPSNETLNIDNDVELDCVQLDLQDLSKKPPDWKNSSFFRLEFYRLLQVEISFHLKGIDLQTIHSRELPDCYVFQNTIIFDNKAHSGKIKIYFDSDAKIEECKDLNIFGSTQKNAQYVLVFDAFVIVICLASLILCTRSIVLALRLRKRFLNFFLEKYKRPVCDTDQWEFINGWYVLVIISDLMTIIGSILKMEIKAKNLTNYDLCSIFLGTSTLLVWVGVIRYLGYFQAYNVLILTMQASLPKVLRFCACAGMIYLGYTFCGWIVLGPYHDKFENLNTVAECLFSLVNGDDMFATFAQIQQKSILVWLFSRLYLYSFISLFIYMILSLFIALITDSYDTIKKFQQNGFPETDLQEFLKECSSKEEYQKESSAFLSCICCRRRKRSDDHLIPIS
How it was run: as §1

| EC50 (TRPML3) | EC50 (TRPML1) | EC50 (TRPML2) | Compound |
| --- | --- | --- | --- |
| < 100 nM | < 100 nM | 500 to 2000 nM | C[C@@H]1CN(c2ncnc3c2c(N2CCC(F)(F)C2)cn3-c2cccc(Cl)c2)CCN1C(=O)OC(C)(C)C [Compound 300, tert-butyl (R)-4-(7-(3-chlorophenyl)-5-(3,3-difluoropyrrolidin-1-yl)-7H-pyrrolo[2,3-d]pyrimidin-4-yl)-2-methylpiperazine-1-carboxylate] |
| 100 to 500 nM | 100 to 500 nM | 500 to 2000 nM | COc1cc(-n2cc(C3CC3)c3c(N4CCN(C(=O)OC(C)(C)C)C[C@@H]4C)ncnc32)cc(F)c1F [Compound 301, tert-butyl (S)-4-(5-cyclopropyl-7-(3,4-difluoro-5-methoxyphenyl)-7H-pyrrolo[2,3-d]pyrimidin-4-yl)-3-methylpiperazine-1-carboxylate] |
| 100 to 500 nM | 500 to 2000 nM | > 2000 nM | COc1cc(C#N)cc(-n2cc(C3CC3)c3c(N4CCN(C(=O)OC(C)(C)C)C[C@@H]4C)ncnc32)c1 [Compound 302, tert-butyl (S)-4-(7-(3-cyano-5-methoxyphenyl)-5-cyclopropyl-7H-pyrrolo[2,3-d]pyrimidin-4-yl)-3-methylpiperazine-1-carboxylate] |
| 100 to 500 nM | 100 to 500 nM | 500 to 2000 nM | C[C@H]1CN(C(=O)OC(C)(C)C)CCN1c1ncnc2c1c(C1CC1)cn2-c1cc(C#N)cc(OC(F)(F)F)c1 [Compound 303, tert-butyl (S)-4-(7-(3-cyano-5-(trifluoromethoxy)phenyl)-5-cyclopropyl-7H-pyrrolo[2,3-d]pyrimidin-4-yl)-3-methylpiperazine-1-carboxylate] |
| 100 to 500 nM | 500 to 2000 nM | 500 to 2000 nM | Cc1nccnc1-c1cn(-c2cccc(OC(F)(F)F)c2)c2ncnc(N3CCN(C(=O)OC(C)(C)C)C[C@@H]3C)c12 [Compound 304, tert-butyl (S)-3-methyl-4-(5-(3-methylpyrazin-2-yl)-7-(3-(trifluoromethoxy)phenyl)-7H-pyrrolo[2,3-d]pyrimidin-4-yl)piperazine-1-carboxylate] |
| 100 to 500 nM | 500 to 2000 nM | > 2000 nM | Cc1nccnc1-c1cn(-c2cc(F)c(F)c(F)c2)c2ncnc(N3CCN(C(=O)OC(C)(C)C)C[C@@H]3C)c12 [Compound 305, tert-butyl (S)-3-methyl-4-(5-(3-methylpyrazin-2-yl)-7-(3,4,5-trifluorophenyl)-7H-pyrrolo[2,3-d]pyrimidin-4-yl)piperazine-1-carboxylate] |
| 100 to 500 nM | 500 to 2000 nM | 500 to 2000 nM | Cc1ccc(Cl)cc1-n1cc(N2CCCC2)c2c(N3CCN(C(=O)OC(C)(C)C)C[C@@H]3C)ncnc21 [Compound 306, tert-butyl (S)-4-(7-(5-chloro-2-methylphenyl)-5-(pyrrolidin-1-yl)-7H-pyrrolo[2,3-d]pyrimidin-4-yl)-3-methylpiperazine-1-carboxylate] |
| < 100 nM | 500 to 2000 nM | 500 to 2000 nM | C[C@H]1CN(C(=O)OC(C)(C)C)CCN1c1ncnc2c1c(N1CCC[C@@H]1CO)cn2-c1cc(F)cc(F)c1 [Compound 307, tert-butyl (S)-4-(7-(3,5-difluorophenyl)-5-((R)-2-(hydroxymethyl)pyrrolidin-1-yl)-7H-pyrrolo[2,3-d]pyrimidin-4-yl)-3-methylpiperazine-1-carboxylate] |
| < 100 nM | < 100 nM | < 100 nM | C[C@H]1CN(C(=O)OC(C)(C)C)CCN1c1ncnc2c1c(N1CCC(F)(F)C1)cn2-c1cccc(Cl)c1 [Compound 308, tert-butyl (S)-4-(7-(3-chlorophenyl)-5-(3,3-difluoropyrrolidin-1-yl)-7H-pyrrolo[2,3-d]pyrimidin-4-yl)-3-methylpiperazine-1-carboxylate] |
| 500 to 2000 nM | > 2000 nM | > 2000 nM | C[C@H]1CN(C(=O)OC(C)(C)C)CCN1c1ncnc2c1c(N1CCCC1=O)cn2-c1cccc(Cl)c1 [Compound 309, tert-butyl (S)-4-(7-(3-chlorophenyl)-5-(2-oxopyrrolidin-1-yl)-7H-pyrrolo[2,3-d]pyrimidin-4-yl)-3-methylpiperazine-1-carboxylate] |
| < 100 nM | < 100 nM | < 100 nM | C[C@H]1CN(C(=O)OC(C)(C)C)CCN1c1ncnc2c1c(N1CCCCC1)cn2-c1cccc(Cl)c1 [Compound 310, tert-butyl (S)-4-(7-(3-chlorophenyl)-5-(piperidin-1-yl)-7H-pyrrolo[2,3-d]pyrimidin-4-yl)-3-methylpiperazine-1-carboxylate] |
| < 100 nM | < 100 nM | < 100 nM | C[C@@H]1CN(c2ncnc3c2c(N2CCCC2)cn3-c2cccc(OC(F)(F)F)c2)CCN1C(=O)OC(C)(C)C [Compound 311, tert-butyl (R)-2-methyl-4-(5-(pyrrolidin-1-yl)-7-(3-(trifluoromethoxy)phenyl)-7H-pyrrolo[2,3-d]pyrimidin-4-yl)piperazine-1-carboxylate] |
| < 100 nM | 100 to 500 nM | 500 to 2000 nM | C[C@H]1CN(C(=O)OC(C)(C)C)CCN1c1ncnc2c1c(N1CCC[C@@H]1CO)cn2-c1cccc(Cl)c1 [Compound 312, tert-butyl (S)-4-(7-(3-chlorophenyl)-5-((R)-2-(hydroxymethyl)pyrrolidin-1-yl)-7H-pyrrolo[2,3-d]pyrimidin-4-yl)-3-methylpiperazine-1-carboxylate] |
| 500 to 2000 nM | > 2000 nM | > 2000 nM | C[C@@H]1CN(c2ncnc3c2c(N2CCCC2=O)cn3-c2cc(F)c(F)c(F)c2)CCN1C(=O)OC(C)(C)C [Compound 313, tert-butyl (R)-2-methyl-4-(5-(2-oxopyrrolidin-1-yl)-7-(3,4,5-trifluorophenyl)-7H-pyrrolo[2,3-d]pyrimidin-4-yl)piperazine-1-carboxylate] |
| 100 to 500 nM | 500 to 2000 nM | > 2000 nM | COc1cc(-n2cc(C3CC3)c3c(N4CCN(C(=O)OC(C)(C)C)C[C@@H]4C)ncnc32)ccc1F [Compound 317, tert-butyl (S)-4-(5-cyclopropyl-7-(4-fluoro-3-methoxyphenyl)-7H-pyrrolo[2,3-d]pyrimidin-4-yl)-3-methylpiperazine-1-carboxylate] |
| 100 to 500 nM | < 100 nM | 500 to 2000 nM | C[C@H]1CN(C(=O)OC(C)(C)C(F)(F)F)CCN1c1ncnc2c1c(C1CC1)cn2-c1cc(C#N)ccn1 [Compound 318, 1,1,1-trifluoro-2-methylpropan-2-yl (S)-4-(7-(4-cyanopyridin-2-yl)-5-cyclopropyl-7H-pyrrolo[2,3-d]pyrimidin-4-yl)-3-methylpiperazine-1-carboxylate] |
| 100 to 500 nM | 500 to 2000 nM | 500 to 2000 nM | Cc1nccnc1-c1cn(-c2cc(C#N)ccn2)c2ncnc(N3CCN(C(=O)OC(C)(C)C)C[C@@H]3C)c12 [Compound 319, tert-butyl (S)-4-(7-(4-cyanopyridin-2-yl)-5-(3-methylpyrazin-2-yl)-7H-pyrrolo[2,3-d]pyrimidin-4-yl)-3-methylpiperazine-1-carboxylate] |
| 500 to 2000 nM | 500 to 2000 nM | > 2000 nM | C[C@H]1CN(C(=O)OC(C)(C)C)CCN1c1ncnc2c1c(-c1cnn(C)c1)cn2-c1cccc(OC(F)(F)F)c1 [Compound 321, tert-butyl (S)-3-methyl-4-(5-(1-methyl-1H-pyrazol-4-yl)-7-(3-(trifluoromethoxy)phenyl)-7H-pyrrolo[2,3-d]pyrimidin-4-yl)piperazine-1-carboxylate] |
